These results are taken from patent publication US20100297042A1, “Cosmetic Compositions and Methods Comprising Rhodiola Rosea” (priority 2004, published 2010).

The subject of this assay is living skin equivalents (LSE). As to the kind of experiment: TT dimer immunostaining (DNA damage/repair) in UVB-irradiated living skin equivalents. Format: cell-based. The conditions noted are these: pre-treated 0.01% (PBS) 18 hours; 24 hours after 175 mJ of UVB. As to the method:
Excised portions (8 mm) are taken from living skin equivalents (LSE) and cultured over transwell membrane plates. These excised portions are pre-treated with rosavin or salidroside at 0.01% (PBS) for 18 hours. After the […], these excised portions are UVB-irradiated at 0 and 175 mJ/cm^2. One set of LSEs is immediately fixed in formalin to determine TT dimer formation (DNA damage). Following a 24-hour post-incubation, another set of skin equivalents is fixed in formalin. These samples are then prepared for TT dimer immunostaining. Sections are then evaluated using a microscope at 400× magnification. A section is selected from each sample and TT dimer containing cells are evaluated. DNA damage is measured by examining TT dimer stained cells immediately after UVB irradiation. DNA repair (TT dimer removal) in UVB-irradiated LSEs is determined by comparing the levels of TT dimer at 0 hr (immediately after UVB) with the levels of TT dimer at 24 hours (24 hours after UVB).

Turning to `O[C@@H]1[C@@H](O)[C@@H](OC/C=C/c2ccccc2)O[C@H](CO[C@@H]2OC[C@H](O)[C@H](O)[C@H]2O)[C@H]1O` [rosavin, cinnamyl alcohol vicyanoside rosavin], the TT dimer levels was found to be 7%.

Take `OC[C@H]1O[C@@H](OCCc2ccc(O)cc2)[C@H](O)[C@@H](O)[C@@H]1O` [salidroside, hydroxyphenylethanol-2-D-glucopyranoside]: the TT dimer levels is on record as 12%.
